US20240208992A1, “MACROCYCLES AS CFTR MODULATORS” (Idorsia Pharmaceuticals Ltd, priority 2021, published 2024)

Target: human F508del-CFTR (Homo sapiens, UniProt P13569, DEL508-508)
Assay: F508del-CFTR cell surface expression (corrector activity), DiscoveRx ß-galactosidase complementation chemiluminescence assay in recombinant U2OS cell line;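 also: U2OS cells co-expressing ProLink-tagged F508del-CFTR and a membrane-anchored enzyme acceptor, where more surface CFTR restores β-galactosidase activity measured by chemiluminescence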
Details: for EC50: EC50, F508del-CFTR cell surface expression; for Emax: U2OS
[1] = U2OS cells, 16h compound incubation, geomean values
[2] = in relation to Emax of corrector lumacaftor (=100%), arithmetic mean values
[3] = U2OS cell line, 16h compound incubation, geomean values
[4] = in relation to the Emax of the corrector lumacaftor (=100%), U2OS cell line, 16h compound incubation, arithmetic mean values
[5] = U2OS cells, 16h compound incubation, geomean of several measurements
[6] = in relation to the Emax of the corrector lumacaftor (=100%), U2OS cells, 16h compound incubation, arithmetic mean

human F508del-CFTR, sequence (P13569 with tags, fused parts or gaps DEL508-508): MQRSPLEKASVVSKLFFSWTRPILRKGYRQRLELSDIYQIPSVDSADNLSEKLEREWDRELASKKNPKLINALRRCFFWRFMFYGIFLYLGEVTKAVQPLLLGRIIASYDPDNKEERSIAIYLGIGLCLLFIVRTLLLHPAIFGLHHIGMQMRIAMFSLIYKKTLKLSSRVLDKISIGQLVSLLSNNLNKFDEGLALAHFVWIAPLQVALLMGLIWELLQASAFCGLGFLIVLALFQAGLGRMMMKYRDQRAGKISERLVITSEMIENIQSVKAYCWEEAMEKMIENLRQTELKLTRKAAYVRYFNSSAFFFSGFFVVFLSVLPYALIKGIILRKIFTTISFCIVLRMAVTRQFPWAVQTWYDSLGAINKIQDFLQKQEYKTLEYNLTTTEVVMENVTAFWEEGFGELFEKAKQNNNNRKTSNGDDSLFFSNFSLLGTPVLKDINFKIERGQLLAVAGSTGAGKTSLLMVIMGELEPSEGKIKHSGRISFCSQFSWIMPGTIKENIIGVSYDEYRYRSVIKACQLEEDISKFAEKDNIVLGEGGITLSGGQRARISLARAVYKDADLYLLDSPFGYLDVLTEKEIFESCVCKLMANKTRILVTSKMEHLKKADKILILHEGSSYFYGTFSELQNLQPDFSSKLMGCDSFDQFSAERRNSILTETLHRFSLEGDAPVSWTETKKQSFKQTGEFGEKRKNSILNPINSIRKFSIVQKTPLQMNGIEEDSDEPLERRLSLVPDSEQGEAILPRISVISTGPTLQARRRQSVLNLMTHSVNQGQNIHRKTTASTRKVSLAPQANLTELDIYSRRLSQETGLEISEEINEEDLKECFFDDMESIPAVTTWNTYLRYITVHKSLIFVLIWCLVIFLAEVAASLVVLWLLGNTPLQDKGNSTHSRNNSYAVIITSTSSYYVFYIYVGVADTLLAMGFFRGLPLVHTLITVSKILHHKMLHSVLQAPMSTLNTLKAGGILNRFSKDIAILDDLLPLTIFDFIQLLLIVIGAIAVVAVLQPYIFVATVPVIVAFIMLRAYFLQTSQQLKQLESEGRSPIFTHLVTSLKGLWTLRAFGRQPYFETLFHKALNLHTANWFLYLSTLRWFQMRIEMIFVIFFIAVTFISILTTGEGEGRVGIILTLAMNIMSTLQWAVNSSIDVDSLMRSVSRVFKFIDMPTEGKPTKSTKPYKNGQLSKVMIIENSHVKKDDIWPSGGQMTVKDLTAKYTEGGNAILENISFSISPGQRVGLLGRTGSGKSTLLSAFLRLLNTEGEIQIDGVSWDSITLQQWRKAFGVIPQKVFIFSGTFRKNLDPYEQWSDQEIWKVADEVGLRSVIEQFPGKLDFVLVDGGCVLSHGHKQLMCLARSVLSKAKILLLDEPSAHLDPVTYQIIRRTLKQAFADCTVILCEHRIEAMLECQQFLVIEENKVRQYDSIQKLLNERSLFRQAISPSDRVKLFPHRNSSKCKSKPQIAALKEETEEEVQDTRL

Compound	EC50 [1] [nM]	Emax [2] [%]	EC50 [3] [nM]	Emax [4] [%]	other results
[2H]C([2H])([2H])Oc1cccc(CCNC(=O)[C@@H]2CC(=O)N(C)[C@@H](CC(C)C)C(=O)N(CCC3CCCCC3)CC(=O)N[C@H](Cc3ccccc3)COc3ccc4c(c3C(=O)N2)OCO4)c1 [Example 347, (8R,14S,18S)-8-benzyl-12-(2-cyclohexylethyl)-14-isobutyl-N-(3-(methoxy-d3)phenethyl)-15-methyl-10,13,16,20-tetraoxo-7,8,9,10,11,12,13,14,15,16,17,18,19,20-tetradecahydro-[1,3]dioxolo[4′,5′:5,6]benzo[1,2-p][1]oxa[4,7,10,14]tetraazacycloheptadecine-18-carboxamide]			131	282	
COc1nc(C)cc2c1C(=O)N[C@H](C(=O)NCCn1nnc(C3CC3)n1)CC(=O)N(C)[C@@H](CC(C)C)C(=O)N1CCCC[C@@H]1C(=O)N[C@H](Cc1ccccc1)CO2 [Example 835, (7S,11S,17aR,20R)-20-benzyl-N-(2-(5-cyclopropyl-2H-tetrazol-2-yl)ethyl)-11-isobutyl-4-methoxy-2,10-dimethyl-5,9,12,18-tetraoxo-5,6,7,8,9,10,11,12,15,16,17,17a,18,19,20,21-hexadecahydro-14H-dipyrido[2,1-f:3′,4′-p][1]oxa[4,7,10,14]tetraazacycloheptadecine-7-carboxamide]					EC50 [5]: 363 nM; Emax [6]: 326%
CC(C)C[C@H]1C(=O)N2CCCC[C@@H]2C(=O)N[C@H](Cc2ccccc2)COc2cnc3c(F)cccc3c2C(=O)N[C@H](C(=O)NCCc2nc(C3CC3)no2)CC(=O)N1C [Example 501, (9S,13S,19aR,22R)-22-benzyl-N-(2-(3-cyclopropyl-1,2,4-oxadiazol-5-yl)ethyl)-3-fluoro-13-isobutyl-12-methyl-7,11,14,20-tetraoxo-7,8,9,10,11,12,13,14,17,18,19,19a,20,21,22,23-hexadecahydro-16H-pyrido[2′,11:6,7][1]oxa[4,7,10,14]tetraazacycloheptadecino[17,16-c]quinoline-9-carboxamide]	198	308			
Cc1ccc(CCNC(=O)[C@@H]2CC(=O)N(C)[C@@H](CC(C)C)C(=O)N3CCOC[C@@H]3C(=O)N[C@H](Cc3ccccc3)COc3cnc4ccccc4c3C(=O)N2)c(C)c1 [Example 63, (9S,13S,19aR,22R)-22-benzyl-N-(2,4-dimethylphenethyl)-13-isobutyl-12-methyl-7,11,14,20-tetraoxo-7,8,9,10,11,12,13,14,16,17,19,19a,20,21,22,23-hexadecahydro-[1,4]oxazino[3′,4′:6,7][1]oxa[4,7,10,14]tetraazacycloheptadecino[17,16-c]quinoline-9-carboxamide]			418	250	
Cc1ccc(F)c(CCNC(=O)[C@@H]2CC(=O)N(C)[C@@H](CC(C)C)C(=O)N3CCCC[C@@H]3C(=O)N[C@H](Cc3ccccc3)COc3cnc4ccccc4c3C(=O)N2)c1F [Example 102, (9S,13S,19aR,22R)-22-benzyl-N-(2,6-difluoro-3-methylphenethyl)-13-isobutyl-12-methyl-7,11,14,20-tetraoxo-7,8,9,10,11,12,13,14,17,18,19,19a,20,21,22,23-hexadecahydro-16H-pyrido[2′,11:6,7][1]oxa[4,7,10,14]tetraazacycloheptadecino[17,16-c]quinoline-9-carboxamide]			225	332	
CC(C)C[C@H]1C(=O)N2CCCC[C@@H]2C(=O)N[C@H](Cc2ccccc2)COc2ccc3ncc(F)cc3c2C(=O)N[C@H](C(=O)NCCc2cnn(C3CC3)n2)CC(=O)N1C [Example 805, (9S,13S,19aR,22R)-22-benzyl-N-(2-(2-cyclopropyl-2H-1,2,3-triazol-4-yl)ethyl)-5-fluoro-13-isobutyl-12-methyl-7,11,14,20-tetraoxo-7,8,9,10,11,12,13,14,17,18,19,19a,20,21,22,23-hexadecahydro-16H-pyrido[2′,1′:6,7][1]oxa[4,7,10,14]tetraazacycloheptadecino[16,17-f]quinoline-9-carboxamide]					EC50 [5]: 191 nM; Emax [6]: 276%
COc1cc(CCNC(=O)[C@@H]2CC(=O)N(C)[C@@H](CC(C)C)C(=O)N3CCC4(CC4)C[C@H]3C(=O)N[C@H](Cc3ccccc3)COc3cc(C)nc(OC)c3C(=O)N2)on1 [Example 684, (7′S,11′S,17a′S,20′R)-20′-benzyl-11′-isobutyl-4′-methoxy-N-(2-(3-methoxyisoxazol-5-yl)ethyl)-2′,10′-dimethyl-5′,9′,12′,18′-tetraoxo-5′,6′,7′,8′,9′,10′,11′,12′,14′,15′,17′,17a′,18′,19′,20′,21′-hexadecahydrospiro[cyclopropane-1,16′-dipyrido[2,1-f:3′,4′-p][1]oxa[4,7,10,14]tetraazacycloheptadecine]-7′-carboxamide]	986	235			
CC(C)C[C@H]1C(=O)N2CCOC[C@@H]2C(=O)N[C@H](Cc2ccccc2)COc2cnc3ccccc3c2C(=O)N[C@H](C(=O)NCCc2ccc(C(C)(C)C)cc2)CC(=O)N1C [Example 48, (9S,13S,19aR,22R)-22-benzyl-N-(4-(tert-butyl)phenethyl)-13-isobutyl-12-methyl-7,11,14,20-tetraoxo-7,8,9,10,11,12,13,14,16,17,19,19a,20,21,22,23-hexadecahydro-[1,4]oxazino[3′,4′:6,7][1]oxa[4,7,10,14]tetraazacycloheptadecino[17,16-c]quinoline-9-carboxamide]			409	151	
Cc1cc(CCNC(=O)[C@@H]2CC(=O)N(C)[C@@H](CC(C)C)C(=O)N3CCN(C4CC4)C[C@H]3C(=O)N[C@H](Cc3ccccc3)COc3cnc4ccccc4c3C(=O)N2)on1 [Example 403, (9S,13S,19aS,22R)-22-benzyl-18-cyclopropyl-13-isobutyl-12-methyl-N-(2-(3-methylisoxazol-5-yl)ethyl)-7,11,14,20-tetraoxo-7,8,9,10,11,12,13,14,17,18,19,19a,20,21,22,23-hexadecahydro-16H-pyrazino[2′,11:6,7][1]oxa[4,7,10,14]tetraazacycloheptadecino[17,16-c]quinoline-9-carboxamide]	550	179			
COc1noc(CCNC(=O)[C@@H]2CC(=O)N(C)[C@@H](CC(C)C)C(=O)N(C)[C@H](CC(F)F)C(=O)N[C@H](Cc3ccccc3)COc3cc(C)nc(OC)c3C(=O)N2)c1F [Example 968, (3R,6R,9S,13S)-3-benzyl-6-(2,2-difluoroethyl)-N-(2-(4-fluoro-3-methoxyisoxazol-5-yl)ethyl)-9-isobutyl-16-methoxy-7,10,18-trimethyl-5,8,11,15-tetraoxo-2,3,4,5,6,7,8,9,10,11,12,13,14,15-tetradecahydropyrido[3,4-p][1]oxa[4,7,10,14]tetraazacycloheptadecine-13-carboxamide]					EC50 [5]: 226 nM; Emax [6]: 478%
COc1cccc2c1C(=O)N[C@H](C(=O)NCCc1ccc(N(C)C)cc1)CC(=O)N(C)[C@@H](CC(C)C)C(=O)N(CCC1CCCCC1)CC(=O)N[C@H](Cc1ccccc1)CO2 [Example 203, (3R,9S,13S)-3-benzyl-7-(2-cyclohexylethyl)-N-(4-(dimethylamino)phenethyl)-9-isobutyl-16-methoxy-10-methyl-5,8,11,15-tetraoxo-2,3,4,5,6,7,8,9,10,11,12,13,14,15-tetradecahydrobenzo[p][1]oxa[4,7,10,14]tetraazacycloheptadecine-13-carboxamide]			183	134	
Cc1cc2ccc3c(c2o1)C(=O)N[C@H](C(=O)NCCc1noc(C2CC2)n1)CC(=O)N(C)[C@@H](CC(C)C)C(=O)N(C)CC(=O)N[C@H](Cc1ccccc1)CO3 [Example 561, (8R,14S,18S)-8-benzyl-N-(2-(5-cyclopropyl-1,2,4-oxadiazol-3-yl)ethyl)-14-isobutyl-2,12,15-trimethyl-10,13,16,20-tetraoxo-7,8,9,10,11,12,13,14,15,16,17,18,19,20-tetradecahydrobenzofuro[7,6-p][1]oxa[4,7,10,14]tetraazacycloheptadecine-18-carboxamide]	437	215			

Now from value to molecule, other results behind:

EC50 [1] [nM]	Emax [2] [%]	EC50 [3] [nM]	Emax [4] [%]	Compound	other results
207	217			COCCCS(=O)(=O)N1CCN2C(=O)[C@H](CC(C)C)N(C)C(=O)C[C@@H](C(=O)NCCc3cccc(OC)c3)NC(=O)c3c(ccc4ccccc34)OC[C@@H](Cc3ccccc3)NC(=O)[C@H]2C1 [Example 743, (4aR,7R,18S,22S)-7-benzyl-22-isobutyl-N-(3-methoxyphenethyl)-3-((3-methoxypropyl)sulfonyl)-21-methyl-5,16,20,23-tetraoxo-2,3,4,4a,5,6,7,8,16,17,18,19,20,21,22,23-hexadecahydro-1H-naphtho[1,2-p]pyrazino[2,1-f][1]oxa[4,7,10,14]tetraazacycloheptadecine-18-carboxamide]	
316	167			Cc1cc(CCNC(=O)[C@@H]2CC(=O)N(C)[C@@H](CC(C)C)C(=O)N(CC[C@@H]3CCCCO3)CC(=O)N[C@H](Cc3csc4ccccc34)COc3cnc4ccccc4c3C(=O)N2)on1 [Example 703, (3S,7S,13R)-13-(benzo[b]thiophen-3-ylmethyl)-7-isobutyl-6-methyl-N-(2-(3-methylisoxazol-5-yl)ethyl)-1,5,8,11-tetraoxo-9-(2-((S)-tetrahydro-2H-pyran-2-yl)ethyl)-1,2,3,4,5,6,7,8,9,10,11,12,13,14-tetradecahydro-[1]oxa[4,7,10,14]tetraazacycloheptadecino[17,16-c]quinoline-3-carboxamide]	
